“And” between values parts separate entries of the source, which are not always exact repeats. Equal entries are not always repeated. Inconclusive results and toxic doses are left out. No stated cut-off is given here; in the data, active means T/C of 150% or more; inactive means T/C below 125%.
Tested on: L1210 leukemia ip in BDF1 mice, survival T/C
Assay: NCI In Vivo Anticancer Drug Screen. Data for tumor model L1210 Leukemia (intraperitoneal) in B6D2F1 (BDF1) mice
Conditions: endpoint: mean survival time, higher = longer survival
Procedure, shortened: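 Ratio derived from survival: compound-dosed mice over vehicle-dosed mice, all bearing a transplantable tumor.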

[1] = dose: 50.0 mg/kg/injection, schedule: Q01DX009 (ip), vehicle: Klucel (hydroxypropylcellulose) (HPC)
[2] = dose: 100.0 mg/kg/injection, schedule: Q01DX009 (ip), vehicle: Klucel (hydroxypropylcellulose) (HPC)
[3] = dose: 200.0 mg/kg/injection, schedule: Q01DX009 (ip), vehicle: Klucel (hydroxypropylcellulose) (HPC)
[4] = dose: 100.0 mg/kg/injection, schedule: Q04DX003 (ip), vehicle: Klucel (hydroxypropylcellulose) (HPC)
[5] = dose: 200.0 mg/kg/injection, schedule: Q04DX003 (ip), vehicle: Klucel (hydroxypropylcellulose) (HPC)
[6] = dose: 100.0 mg/kg/injection, schedule: Q04DX003 (ip), vehicle: saline with Tween-80
[7] = dose: 200.0 mg/kg/injection, schedule: Q04DX003 (ip), vehicle: saline with Tween-80
[8] = dose: 400.0 mg/kg/injection, schedule: Q04DX003 (ip), vehicle: saline with Tween-80
[9] = dose: 100.0 mg/kg/injection, schedule: Q01DX009 (ip), vehicle: saline with Tween-80
[10] = dose: 200.0 mg/kg/injection, schedule: Q01DX009 (ip), vehicle: saline with Tween-80
[11] = dose: 50.0 mg/kg/injection, schedule: Q01DX009 (ip), vehicle: saline with Tween-80
[12] = dose: 12.5 mg/kg/injection, schedule: Q01DX009 (ip), vehicle: saline with Tween-80
[13] = dose: 25.0 mg/kg/injection, schedule: Q01DX009 (ip), vehicle: saline with Tween-80
[14] = dose: 100.0 mg/kg/injection, schedule: Q01DX001 (ip), vehicle: saline
[15] = dose: 200.0 mg/kg/injection, schedule: Q01DX001 (ip), vehicle: saline
[16] = dose: 400.0 mg/kg/injection, schedule: Q01DX001 (ip), vehicle: saline
[17] = dose: 18.75 mg/kg/injection, schedule: Q01DX009 (ip), vehicle: saline
[18] = dose: 37.5 mg/kg/injection, schedule: Q01DX009 (ip), vehicle: saline
[19] = dose: 75.0 mg/kg/injection, schedule: Q01DX009 (ip), vehicle: saline

Measured: T/C

NC(=O)CC(NC(=O)OCc1ccccc1)C(=O)O (stereo not given)
inactive: [1] 95 % of control | [2] 95 % of control | [3] 109 % of control

CCCCN(CCCC)/N=N/c1nc[nH]c1C(=O)OC
inactive: dose: 100.0 mg/kg/injection, schedule: Q01DX001 (ip), vehicle: other 97 % of control | dose: 200.0 mg/kg/injection, schedule: Q01DX001 (ip), vehicle: other 97 % of control

COC1OC2COCOC2C(OC(C)=O)C1OC(C)=O (stereo not given)
inactive: dose: 50.0 mg/kg/injection, schedule: Q04DX002 (ip), vehicle: Klucel (hydroxypropylcellulose) (HPC) 104 % of control | dose: 100.0 mg/kg/injection, schedule: Q04DX002 (ip), vehicle: Klucel (hydroxypropylcellulose) (HPC) 103 % of control and 100 % of control | dose: 200.0 mg/kg/injection, schedule: Q04DX002 (ip), vehicle: Klucel (hydroxypropylcellulose) (HPC) 95 % of control and 104 % of control and 92 % of control | dose: 400.0 mg/kg/injection, schedule: Q04DX002 (ip), vehicle: Klucel (hydroxypropylcellulose) (HPC) 103 % of control and 113 % of control

COC(=O)N1C2CCC(C2=C(C)C)N1C(=O)OC
inactive: dose: 50.0 mg/kg/injection, schedule: Q04DX003 (ip), vehicle: Klucel (hydroxypropylcellulose) (HPC) 105 % of control | [4] 102 % of control | [5] 94 % of control

O=C(O)c1ccc([N+](=O)[O-])cc1P(=O)(O)O
inactive: dose: 75.0 mg/kg/injection, schedule: Q04DX003 (ip), vehicle: saline with Tween-80 103 % of control

C=C1C(=O)O[C@H]2C=C(C)[C@H]3[C@@H](OC(C)=O)C[C@@](C)(O)[C@@H]3C[C@H]12
inactive: dose: 50.0 mg/kg/injection, schedule: Q01DX Z (ip), vehicle: carboxymethylcellulose (CMC) 94 % of control

c1ccc(-c2nc3ccccc3o2)cc1
inactive: [2] 92 % of control | [4] 92 % of control | [3] 97 % of control | [5] 95 % of control | dose: 400.0 mg/kg/injection, schedule: Q01DX009 (ip), vehicle: Klucel (hydroxypropylcellulose) (HPC) 92 % of control | dose: 400.0 mg/kg/injection, schedule: Q04DX003 (ip), vehicle: Klucel (hydroxypropylcellulose) (HPC) 103 % of control

CC(=O)Nc1ccc(S(=O)(=O)NC(=O)NC(C)C)cc1
inactive: [6] 103 % of control | [7] 97 % of control | [8] 100 % of control

COP(=O)(C(OC(=O)C(C)(C)C)=C(C)C)N(C)C (stereo not given)
inactive: [6] 97 % of control | [7] 96 % of control | [8] 96 % of control

CCC(O)(CC(=O)O)c1ccccc1 (stereo not given)
inactive: [9] 91 % of control | [6] 104 % of control | [10] 96 % of control | [7] 104 % of control | [8] 105 % of control

CCOC(=O)CCSC
inactive: [11] 100 % of control | [9] 97 % of control | [6] 93 % of control | [10] 92 % of control | [7] 96 % of control

CN1C(=O)CC(c2ccc(N3C(=O)C=CC3=O)cc2)C1=O (stereo not given)
inactive: dose: 25.0 mg/kg/injection, schedule: Q04DX002 (ip), vehicle: saline with Tween-80 102 % of control

CCc1ccc(NC(=O)c2c(Br)c(Br)c(Br)c(Br)c2C(=O)O)cc1
inactive: dose: 25.0 mg/kg/injection, schedule: Q01DX009 (ip), vehicle: Klucel (hydroxypropylcellulose) (HPC) 96 % of control | [1] 104 % of control | [2] 101 % of control and 107 % of control

O=C(OC1CC2CC=CC21)c1ccc([N+](=O)[O-])cc1 (stereo not given)
inactive: [6] 96 % of control | [7] 98 % of control | [8] 94 % of control

Fc1ccc(N2CCNCC2)cc1
inactive: [12] 104 % of control | [13] 104 % of control | [11] 107 % of control

O=C(Nc1ccc([N+](=O)[O-])cc1)N(c1ccccc1)c1cc(N2CCOCC2)ccn1
inactive: [14] 91 % of control | [15] 91 % of control | [16] 88 % of control

CN(CCCCC(=O)NC(CCC(=O)O)C(=O)O)Cc1cnc2nc(N)nc(N)c2n1 (stereo not given)
inactive: dose: 20.0 mg/kg/injection, schedule: Q01DX009 (ip), vehicle: saline 94 % of control | dose: 40.0 mg/kg/injection, schedule: Q01DX009 (ip), vehicle: saline 112 % of control | dose: 80.0 mg/kg/injection, schedule: Q01DX009 (ip), vehicle: saline 94 % of control

COc1cc(N(CCCl)CCCl)c(OC)cc1/C=N/NC(=O)CC(N)C(=O)O (stereo not given)
active: dose: 600.0 mg/kg/injection, schedule: Q01DX001 (ip), vehicle: carboxymethylcellulose (CMC) 153 % of control
inactive: dose: 12.37 mg/kg/injection, schedule: Q01DX009 (ip), vehicle: saline 107 % of control | [12] 113 % of control | [17] 112 % of control | [13] 119 % of control | dose: 28.12 mg/kg/injection, schedule: Q01DX009 (ip), vehicle: saline 112 % of control | [18] 88 % of control | dose: 37.5 mg/kg/injection, schedule: Q04DX003 (ip), vehicle: acetone 111 % of control | [11] 119 % of control | dose: 75.0 mg/kg/injection, schedule: Q01DX001 (ip), vehicle: saline 123 % of control | [19] 88 % of control | dose: 75.0 mg/kg/injection, schedule: Q04DX003 (ip), vehicle: acetone 105 % of control | dose: 100.0 mg/kg/injection, schedule: Q01DX001 (ip), vehicle: carboxymethylcellulose (CMC) 115 % of control | dose: 100.0 mg/kg/injection, schedule: Q01DX009 (ip), vehicle: other 120 % of control | dose: 150.0 mg/kg/injection, schedule: Q01DX001 (ip), vehicle: saline 123 % of control | dose: 150.0 mg/kg/injection, schedule: Q04DX003 (ip), vehicle: acetone 113 % of control | dose: 177.0 mg/kg/injection, schedule: Q01DX001 (ip), vehicle: carboxymethylcellulose (CMC) 120 % of control | dose: 266.0 mg/kg/injection, schedule: Q01DX001 (ip), vehicle: carboxymethylcellulose (CMC) 124 % of control | dose: 400.0 mg/kg/injection, schedule: Q01DX001 (ip), vehicle: carboxymethylcellulose (CMC) 118 % of control

Brc1n[nH]nc1Br
inactive: [6] 98 % of control | [7] 104 % of control | [8] 101 % of control

Cc1ccc(NC(=O)Oc2ccc([N+](=O)[O-])cc2)cc1S(=O)(=O)F
inactive: dose: 100.0 mg/kg/injection, schedule: Q01DX001 (ip), vehicle: saline with Tween-80 100 % of control and 101 % of control | [9] 98 % of control and 101 % of control | dose: 100.0 mg/kg/injection, schedule: Q04DX002 (ip), vehicle: saline with Tween-80 94 % of control and 99 % of control | [6] 98 % of control and 102 % of control | dose: 200.0 mg/kg/injection, schedule: Q01DX001 (ip), vehicle: saline with Tween-80 97 % of control and 100 % of control | [10] 103 % of control and 109 % of control | dose: 200.0 mg/kg/injection, schedule: Q04DX002 (ip), vehicle: saline with Tween-80 100 % of control and 90 % of control | [7] 94 % of control and 102 % of control | dose: 400.0 mg/kg/injection, schedule: Q01DX001 (ip), vehicle: saline with Tween-80 104 % of control and 107 % of control | dose: 400.0 mg/kg/injection, schedule: Q04DX002 (ip), vehicle: saline with Tween-80 96 % of control and 101 % of control | [8] 98 % of control

CCN(CCCCOC(=O)c1ccc(OC)c(OC)c1)C(C)Cc1ccc(OC)cc1 (stereo not given)
inactive: dose: 9.37 mg/kg/injection, schedule: Q01DX009 (ip), vehicle: saline 95 % of control | [17] 87 % of control | dose: 18.75 mg/kg/injection, schedule: Q04DX003 (ip), vehicle: saline 114 % of control | [18] 101 % of control | dose: 37.5 mg/kg/injection, schedule: Q04DX003 (ip), vehicle: saline 100 % of control | [19] 108 % of control | dose: 75.0 mg/kg/injection, schedule: Q04DX003 (ip), vehicle: saline 100 % of control | dose: 150.0 mg/kg/injection, schedule: Q04DX003 (ip), vehicle: saline 105 % of control

O=C(CC1CCCCC1O)Nc1ccccc1 (stereo not given)
inactive: dose: 50.0 mg/kg/injection, schedule: Q01DX001 (ip), vehicle: saline 97 % of control | [14] 95 % of control | [15] 101 % of control | [16] 97 % of control

N#CCCCI
inactive: dose: 50.0 mg/kg/injection, schedule: Q04DX003 (ip), vehicle: acetone 96 % of control | dose: 100.0 mg/kg/injection, schedule: Q04DX003 (ip), vehicle: acetone 100 % of control | dose: 200.0 mg/kg/injection, schedule: Q04DX003 (ip), vehicle: acetone 105 % of control

— PubChem BioAssay AID248 (DTP/NCI, 2004)
